# Data: patent US11856970B2, “Bacillus subtilis for animal feed” (CHR. HANSEN A/S, priority 2018, dated 2024)
# Tested on: E. coli
# Test: Agar well diffusion, screening for inhibition of E. coli
# Type: cell-based, Escherichia coli
# Details: E. coli O147:K89 F4 H19
# Experimental: The seven pathogenic E. coli and Salmonella spp. strains were each suspended in MRD until McFarland 0.5 was obtained and 10 μL of each pathogen suspension was diluted in approximately 35 ml melted LB agar (max. 42° C.). The inoculated agar was poured into Omni Tray Single-well plates, Immuno TSP plates were attached. After drying the immune TSP plates were removed and the wells were inoculated with 5 μL overnight culture (triplicates) of Bacillus test strains. The plates were incubated aerobically at 30° C. for 48 hours. For the E. coli plates, two replicate plates were used (n=2); for the 10 Salmonella spp. plates, one replicate plate was used (n=1).
# The following positioning of the Bacillus subtilis strains on the plates containing the pathogens was used:
# The concentration of E. coli and Salmonella spp. in the inoculated agar was estimated to be 2.9×10^4 CFU/ml.
smiles,measurement,value
O=C(O)c1cn(C2CC2)c2cc(N3CCNCC3)c(F)cc2c1=O [ciprofloxacin],"inhibition zones (FIG. 2, in words)",Inhibition is also seen
